Measurements as given in publication PMC12332266 (Frontiers in Pharmacology, 2025).
Read-outs that look alike come from different tables or passages of the source. Each block holds one molecule with its values, some of them ahead of it.

Experiments:
[1] = system: hiPSC-CM (iCell Cardiomyocytes^2); assay: RTCA CardioECR assessment (impedance and electrophysiology parameters); settings: for Cell index (CI) MEC / RTCA, MEC (CI): hiPSC-CM; for Cell index (CI) MEC: 72-hour treatment, lowest concentration causing at least 20% change from baseline; for RTCA, MEC (CI): change ≥20%, Table 2; for Beating Rate MEC / Beating rate (BR) MEC / Cell Index MEC / Contractility Amplitude MEC / RTCA, MEC (BR) / Spike Amplitude (SA) MEC / Field Potential Duration MEC: human, 72 h
Outline: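 iCell^2 cardiomyocytes on fibronectin-coated ePlates monitored continuously by impedance for cell index, beating rate and amplitude. Field potential duration and spike amplitude were recorded from day 4–6 after monolayer formation. Data were double-normalized to DMSO control and baseline, with variability given as SD.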

[2] = system: hiPSC-CM (iCell Cardiomyocytes^2); assay: Intracellular miRNA expression by RT-qPCR in hiPSC-CM pellets after 72-hour treatment; settings: for hsa-miR-7-5p fold change, intracellular / hsa-miR-96-5p fold change, intracellular / hsa-miR-126-3p fold change, intracellular / hsa-miR-133b fold change, intracellular / hsa-miR-146b-5p fold change, intracellular / hsa-miR-182-5p fold change, intracellular / hsa-miR-185-3p fold change, intracellular / hsa-miR-187-3p fold change, intracellular / hsa-miR-208b-3p fold change, intracellular / hsa-miR-365a-5p fold change, intracellular / hsa-miR-[…] change, intracellular / hsa-miR-29a-5p fold change, intracellular / fold induction at 0.1 µM / fold induction at 0.3 µM / fold induction at 1 µM / fold induction at 3 µM: 72 h; for fold induction at 0.1 µM / fold induction at 0.3 µM / fold induction at 1 µM / fold induction at 3 µM: Homo sapiens
Outline: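 After 72-hour treatment and RTCA CardioECR assessment, total RNA from hiPSC-CM pellets was reverse transcribed, pre-amplified and quantified by TaqMan RT-qPCR against a 17-miRNA panel. Triplicates were pooled, so no statistical analysis was performed.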

[3] = ref extensive literature search, cited from earlier work
[4] = read-out: hsa-miR-7-5p fold change
[5] = read-out: hsa-miR-29a-5p fold change
[6] = read-out: hsa-miR-96-5p fold change
[7] = read-out: hsa-miR-126-3p fold change
[8] = read-out: hsa-miR-133b fold change
[9] = read-out: hsa-miR-146b-5p fold change
[10] = read-out: hsa-miR-182-5p fold change
[11] = read-out: hsa-miR-185-3p fold change
[12] = read-out: hsa-miR-187-3p fold change
[13] = read-out: hsa-miR-208b-3p fold change
[14] = read-out: hsa-miR-365a-5p fold change

- Cell index (CI) MEC [1]: 1 µM
- RTCA, MEC (CI) [1]: 1 µM
- Beating Rate MEC [1]: 0.3 µM
- Beating rate (BR) MEC [1]: 0.3 µM
- Cell Index MEC [1]: 1 µM
- Contractility Amplitude MEC [1]: 10 µM
- RTCA, MEC (BR) [1]: 0.3 µM
- Spike Amplitude (SA) MEC [1]: 0.3 µM
- miRNAs hiPSC-CM pellet, MEC overall [2]: 0.3 µM
- hsa-miR-7-5p fold change, intracellular ([2]; 0.3 µM): 1.4
- hsa-miR-96-5p fold change, intracellular ([2]; 0.3 µM): 9.0
- hsa-miR-126-3p fold change, intracellular ([2]; 0.3 µM): 1.6
- hsa-miR-133b fold change, intracellular ([2]; 0.3 µM): 2.7
- hsa-miR-146b-5p fold change, intracellular ([2]; 0.3 µM): 0.8
- hsa-miR-182-5p fold change, intracellular ([2]; 0.3 µM): 2.5
- hsa-miR-185-3p fold change, intracellular ([2]; 0.3 µM): 6.4
- hsa-miR-187-3p fold change, intracellular ([2]; 0.3 µM): 1.7
- hsa-miR-208b-3p fold change, intracellular ([2]; 0.3 µM): 1.2
- hsa-miR-365a-5p fold change, intracellular ([2]; 0.3 µM): 5.4
- hsa-miR-[…] change, intracellular ([2]; 0.3 µM): 0.8
- hsa-miR-7-5p fold change, intracellular ([2]; 1 µM): 0.8
- hsa-miR-29a-5p fold change, intracellular ([2]; 1 µM): 3.6
- hsa-miR-96-5p fold change, intracellular ([2]; 1 µM): 4.7
- hsa-miR-126-3p fold change, intracellular ([2]; 1 µM): 2.1
- hsa-miR-133b fold change, intracellular ([2]; 1 µM): 1.6
- hsa-miR-146b-5p fold change, intracellular ([2]; 1 µM): 0.9
- hsa-miR-182-5p fold change, intracellular ([2]; 1 µM): 0.9
- hsa-miR-185-3p fold change, intracellular ([2]; 1 µM): 1.5
- hsa-miR-187-3p fold change, intracellular ([2]; 1 µM): 0.5
- hsa-miR-208b-3p fold change, intracellular ([2]; 1 µM): 1.2
- hsa-miR-365a-5p fold change, intracellular ([2]; 1 µM): 0.8
- hsa-miR-[…] change, intracellular ([2]; 1 µM): 0.8
- hsa-miR-7-5p fold change, intracellular ([2]; 3 µM): 0.9
- hsa-miR-29a-5p fold change, intracellular ([2]; 3 µM): 4.0
- hsa-miR-126-3p fold change, intracellular ([2]; 3 µM): 1.1
- hsa-miR-133b fold change, intracellular ([2]; 3 µM): 3.3
- hsa-miR-146b-5p fold change, intracellular ([2]; 3 µM): 6.4
- hsa-miR-182-5p fold change, intracellular ([2]; 3 µM): 0.8
- hsa-miR-185-3p fold change, intracellular ([2]; 3 µM): 7.9
- hsa-miR-187-3p fold change, intracellular ([2]; 3 µM): 1.4
- hsa-miR-208b-3p fold change, intracellular ([2]; 3 µM): 1.2
- hsa-miR-365a-5p fold change, intracellular ([2]; 3 µM): 0.7
- hsa-miR-[…] change, intracellular ([2]; 3 µM): 0.8
- hsa-miR-7-5p fold change, intracellular ([2]; 10 µM): 0.5
- hsa-miR-29a-5p fold change, intracellular ([2]; 10 µM): 7.4
- hsa-miR-96-5p fold change, intracellular ([2]; 10 µM): 0.5
- hsa-miR-126-3p fold change, intracellular ([2]; 10 µM): 1.8
- hsa-miR-133b fold change, intracellular ([2]; 10 µM): 1.1
- hsa-miR-146b-5p fold change, intracellular ([2]; 10 µM): 0.4
- hsa-miR-182-5p fold change, intracellular ([2]; 10 µM): 0.4
- hsa-miR-185-3p fold change, intracellular ([2]; 10 µM): 3.3
- hsa-miR-187-3p fold change, intracellular ([2]; 10 µM): 0.6
- hsa-miR-208b-3p fold change, intracellular ([2]; 10 µM): 1.6
- hsa-miR-365a-5p fold change, intracellular ([2]; 10 µM): 3.9
- hsa-miR-[…] change, intracellular ([2]; 10 µM): 0.7
SMILES: Cc1nc(Nc2ncc(C(=O)Nc3c(C)cccc3Cl)s2)cc(N2CCN(CCO)CC2)n1 [Dasatinib]
- miRNAs upregulated at the MEC overall (hiPSC-CM pellet) [2]: miR-96-5p, miR-133b, miR-182-5p, miR-185-3p, miR-365a-5p
- Cmax total ([3]; Supplementary Table 1): 970 nM
- Cmax total ([3]; Table 1): 970 nM

- Cell index (CI) MEC [1]: 0.1 µM
- RTCA, MEC (CI) [1]: 0.1 µM (CI, BR)
- Beating Rate MEC [1]: 0.1 µM
- Beating rate (BR) MEC [1]: 0.1 µM
- Cell Index MEC [1]: 0.1 µM
- Contractility Amplitude MEC [1]: 1 µM
- Field Potential Duration MEC [1]: 0.1 µM
- RTCA, MEC (BR) [1]: 0.1 µM (CI, BR)
- Spike Amplitude (SA) MEC [1]: 0.1 µM
- miRNAs hiPSC-CM pellet, MEC overall [2]: 0.3 µM
SMILES: CC(=O)[C@]1(O)Cc2c(O)c3c(c(O)c2[C@@H](O[C@H]2C[C@H](N)[C@H](O)[C@H](C)O2)C1)C(=O)c1ccccc1C3=O [Idarubicin]
- miRNAs upregulated at the MEC overall (hiPSC-CM pellet) [2]: miR-96 -5p, miR-126-3p, miR-133b, miR-185-3p
- fold induction at 0.1 µM [2, 4]: 4.5
- fold induction at 0.3 µM [2, 4]: 5.8
- fold induction at 1 µM [2, 4]: 3.5
- fold induction at 3 µM [2, 4]: 0.2
- fold induction at 0.1 µM [2, 5]: 1.2
- fold induction at 0.3 µM [2, 5]: 4.4
- fold induction at 1 µM [2, 5]: 1.2
- fold induction at 3 µM [2, 5]: 3
- fold induction at 0.1 µM [2, 6]: 9
- fold induction at 0.3 µM [2, 6]: 21.3
- fold induction at 1 µM [2, 6]: 53.4
- fold induction at 3 µM [2, 6]: 0.8
- fold induction at 0.1 µM [2, 7]: 1
- fold induction at 0.3 µM [2, 7]: 1.3
- fold induction at 1 µM [2, 7]: 0.7
- fold induction at 3 µM [2, 7]: 1.1
- fold induction at 0.1 µM [2, 8]: 0.5
- fold induction at 0.3 µM [2, 8]: 2.5
- fold induction at 1 µM [2, 8]: 1.2
- fold induction at 3 µM [2, 8]: 10.9
- fold induction at 0.1 µM [2, 9]: 3.5
- fold induction at 0.3 µM [2, 9]: 7.3
- fold induction at 1 µM [2, 9]: 2
- fold induction at 3 µM [2, 9]: 3.4
- fold induction at 0.1 µM [2, 10]: 0.03
- fold induction at 0.3 µM [2, 10]: 0.1
- fold induction at 1 µM [2, 10]: 0.4
- fold induction at 3 µM [2, 10]: 0.7
- fold induction at 0.1 µM [2, 11]: 1.6
- fold induction at 0.3 µM [2, 11]: 1.3
- fold induction at 1 µM [2, 11]: 1
- fold induction at 0.1 µM [2, 12]: 9
- fold induction at 0.3 µM [2, 12]: 8.5
- fold induction at 1 µM [2, 12]: 2.9
- fold induction at 3 µM [2, 12]: 1.9
- fold induction at 0.1 µM [2, 13]: 0.5
- fold induction at 0.3 µM [2, 13]: 0.6
- fold induction at 1 µM [2, 13]: 0.8
- fold induction at 3 µM [2, 13]: 2
- fold induction at 0.1 µM [2, 14]: 3.5
- fold induction at 0.3 µM [2, 14]: 2.1
- fold induction at 1 µM [2, 14]: 1.1
- fold induction at 3 µM [2, 14]: 3.4
- fold induction at 0.1 µM ([2]; read-out: hsa-miR-[…] change): 1
- fold induction at 0.3 µM ([2]; read-out: hsa-miR-[…] change): 1.1
- fold induction at 1 µM ([2]; read-out: hsa-miR-[…] change): 0.7
- fold induction at 3 µM ([2]; read-out: hsa-miR-[…] change): 3.4
- Cmax total ([3]; Supplementary Table 1): 120 to 3800 nM
- Cmax total ([3]; Table 1): 120 to 3800 nM

- RTCA, MEC (CI) [1]: 0.3 µM (CI, BR (Q))
- Beating Rate MEC [1]: 0.3 µM
- Beating rate (BR) MEC [1]: 0.3 µM
- Contractility Amplitude MEC [1]: 0.3 µM
- Field Potential Duration MEC [1]: 0.3 µM
- RTCA, MEC (BR) [1]: 0.3 µM (CI, BR (Q))
- Spike Amplitude (SA) MEC [1]: 0.3 µM
- miRNAs hiPSC-CM pellet, MEC overall [2]: 0.3 µM
SMILES: COc1cccc2c1C(=O)c1c(O)c3c(c(O)c1C2=O)C[C@@](O)(C(=O)CO)C[C@@H]3O[C@H]1C[C@H](N)[C@@H](O)[C@H](C)O1 [Epirubicin]
- miRNAs upregulated at the MEC overall (hiPSC-CM pellet) [2]: miR-7-5p, miR-29a-5p, miR-126-3p, miR-146b-5p, miR-182-5p, miR-184, miR-185-3p, miR-187-3p, miR-208b-3p, miR-365a-5p
- Cmax total ([3]; Supplementary Table 1): 16600 nM
- Cmax total ([3]; Table 1): 16600 nM
